Experimental data taken from article PMC7718874, “Coupling of H3K27me3 recognition with transcriptional repression through the BAH-PHD-CPL2 complex in Arabidopsis” (Nature Communications, 2020).

Key:
[1] = test system: nascent RNA (Pol II transcription rate) of AGO5, SUC5 and downstream nontarget genes; experiment: Nuclear run-on assay with or without FLA (flavopiridol) treatment; design: species or system Arabidopsis; conditions: for NRO-qPCR, AT1G71900 / NRO-qPCR, AT2G27900 / NRO-qPCR, FT / NRO-qPCR, SUC5 / NRO-qPCR, AGO5: Figure 7c
Description: FLA treatment assay was performed as previous report. In brief, 2-week-old seedlings were collected and incubated with 200 μM FLA or mock solution (DMSO) overnight. The treated seedlings were subjected to total RNA extraction.
Nuclear run-on assay was performed as previous report with minor changes. In brief, after nuclei isolation with buffer (0.25 M sucrose, 15 mM PIPES pH 6.8, 5 mM MgCl2, 60 mM KCl, 15 mM NaCl, 1 mM CaCl2, 0.9% Triton X-100, and protease inhibitor cocktail), the nuclear pellet was resuspended with nuclei storage buffer (50 mM Tris-HCl pH 8, 0.1 mM EDTA, 5 mM MgCl2 and 40% glycerol) and mixed with transcription buffer (10 mM Tris-HCl, pH 8, 2.5 mM MgCl2, 150 mM KCl, 2 mM DTT, 80 units RNase inhibitor, 0.5 mM BrUTP, 1 mM ATP, 1 mM GTP, 1 mM CTP, 0.5 mM UTP, and 0.2% sarkosyl). After incubation at 30 °C for 15 min, the run-on reaction was stopped by adding Trizol reagent (Thermo). The nuclear RNAs were extracted and treated with DNase. The DNA-free RNAs were then inoculated with 2 μg anti-BrdU antibody (abcam) at room temperature for 30 min and precipitated by Dynabeads (Thermo). After two times washing, RNAs were extracted using Trizol reagent (Thermo). cDNAs were synthesized using SuperScript IV Reverse Transcriptase (Thermo) and subjected to qPCR analysis.

[2] = test system: CDK kinases; conditions: cited from earlier work

CN1CC[C@H](c2c(O)cc(O)c3c(=O)cc(-c4ccccc4Cl)oc23)[C@H](O)C1 [FLA, flavopiridol]
nascent RNA levels upon FLA treatment (in words) ([1]; 200 μM FLA overnight, 2-week-old seedlings, AGO5, SUC5 and downstream nontarget genes, BrUTP run-on, qPCR, normalized to 18 S rRNA, three biological repeats): greatly reduced
difference of nascent RNA levels between genotypes upon FLA treatment (in words) ([1]; 200 μM FLA overnight, Fig. 7c, three biological repeats): no obvious changes were observed between different genotypes
NRO-qPCR, AT1G71900 ([1]; Col-0 FLA, Repeat 1): 2e-5
NRO-qPCR, AT2G27900 ([1]; Col-0 FLA, Repeat 1): 4.5e-5
NRO-qPCR, FT ([1]; Col-0 FLA, Repeat 1): 2e-6
NRO-qPCR, SUC5 ([1]; Col-0 FLA, Repeat 1): 2e-6
NRO-qPCR, AT1G71900 ([1]; Col-0 FLA, Repeat 2): 1.6e-5
NRO-qPCR, AT2G27900 ([1]; Col-0 FLA, Repeat 2): 1.8e-5
NRO-qPCR, FT ([1]; Col-0 FLA, Repeat 2): 2e-6
NRO-qPCR, SUC5 ([1]; Col-0 FLA, Repeat 2): 1.2e-5
NRO-qPCR, AT1G71900 ([1]; Col-0 FLA, Repeat 3): 2e-6
NRO-qPCR, AT2G27900 ([1]; Col-0 FLA, Repeat 3): 4.7e-5
NRO-qPCR, SUC5 ([1]; Col-0 FLA, Repeat 3): 5e-6
NRO-qPCR, AGO5 ([1]; aipp2/paipp2 FLA, Repeat 1): 1.35e-7
NRO-qPCR, AT1G71900 ([1]; aipp2/paipp2 FLA, Repeat 1): 1e-5
NRO-qPCR, AT2G27900 ([1]; aipp2/paipp2 FLA, Repeat 1): 3.1e-5
NRO-qPCR, FT ([1]; aipp2/paipp2 FLA, Repeat 1): 5e-6
NRO-qPCR, SUC5 ([1]; aipp2/paipp2 FLA, Repeat 1): 1.1e-5
NRO-qPCR, AT1G71900 ([1]; aipp2/paipp2 FLA, Repeat 2): 1.3e-5
NRO-qPCR, AT2G27900 ([1]; aipp2/paipp2 FLA, Repeat 2): 2.6e-5
NRO-qPCR, FT ([1]; aipp2/paipp2 FLA, Repeat 2): 4e-6
NRO-qPCR, SUC5 ([1]; aipp2/paipp2 FLA, Repeat 2): 1.2e-5
NRO-qPCR, AGO5 ([1]; aipp2/paipp2 FLA, Repeat 3): 2.05e-6
NRO-qPCR, AT2G27900 ([1]; aipp2/paipp2 FLA, Repeat 3): 2.3e-5
NRO-qPCR, AT1G71900 ([1]; aipp3 FLA, Repeat 1): 1.1e-5
NRO-qPCR, AT2G27900 ([1]; aipp3 FLA, Repeat 1): 1.5e-5
NRO-qPCR, FT ([1]; aipp3 FLA, Repeat 1): 3e-6
NRO-qPCR, SUC5 ([1]; aipp3 FLA, Repeat 1): 2e-6
NRO-qPCR, AT1G71900 ([1]; aipp3 FLA, Repeat 2): 1e-5
NRO-qPCR, AT2G27900 ([1]; aipp3 FLA, Repeat 2): 5e-5
NRO-qPCR, FT ([1]; aipp3 FLA, Repeat 2): 1e-6
NRO-qPCR, SUC5 ([1]; aipp3 FLA, Repeat 2): 2e-6
NRO-qPCR, AT1G71900 ([1]; aipp3 FLA, Repeat 3): 1e-5
NRO-qPCR, AT2G27900 ([1]; aipp3 FLA, Repeat 3): 7.2e-5
NRO-qPCR, SUC5 ([1]; aipp3 FLA, Repeat 3): 1e-6
NRO-qPCR, AGO5 ([1]; cpl2 FLA, Repeat 1): 1.31e-6
NRO-qPCR, AT1G71900 ([1]; cpl2 FLA, Repeat 1): 2e-6
NRO-qPCR, AT2G27900 ([1]; cpl2 FLA, Repeat 1): 1.6e-5
NRO-qPCR, FT ([1]; cpl2 FLA, Repeat 1): 1e-6
NRO-qPCR, SUC5 ([1]; cpl2 FLA, Repeat 1): 1e-5
NRO-qPCR, AGO5 ([1]; cpl2 FLA, Repeat 2): 5.33e-7
NRO-qPCR, AT1G71900 ([1]; cpl2 FLA, Repeat 2): 2e-6
NRO-qPCR, AT2G27900 ([1]; cpl2 FLA, Repeat 2): 2.7e-5
NRO-qPCR, FT ([1]; cpl2 FLA, Repeat 2): 2e-6
NRO-qPCR, SUC5 ([1]; cpl2 FLA, Repeat 2): 7e-6
NRO-qPCR, AT2G27900 ([1]; cpl2 FLA, Repeat 3): 1.1e-5
NRO-qPCR, FT ([1]; cpl2 FLA, Repeat 3): 1e-6
NRO-qPCR, SUC5 ([1]; cpl2 FLA, Repeat 3): 8e-6
reduction of Pol II CTD phosphorylation (in words) [2]: reduce the phosphorylation of Pol II CTD by inhibiting the activity of CDK kinases
